Test results reported in BindingDB's records for patent US20240300941 (Zhuhai Yufan Biotechnologies, 2024).

Biological target: Mitogen-activated protein kinase kinase kinase kinase 1 (Homo sapiens, UniProt Q92918)
Assay: HPK1 ADP-Glo Enzyme Assay
Method: The buffer used in the enzyme assay contains 5 mM MOPS (pH=7.2), 2.5 mM β-Glycerol Phosphate, 0.4 mM EDTA, 1 mM EGTA, 0.05 mM DTT, 5 mM MgCl2. The compound was dissolved in 100% DMSO at the concentration was 10 mM. The initial concentration of the test was 5 uM, and ten data points were diluted by three-fold gradient, and each point was repeatedly measured twice. The HPK1 protein was purchased from Thermo (Cat. No. PV6355) and diluted to 2× stock solution at the concentration of 10 nM (the final concentration of the enzyme assay was 5 nM). 2.5 µl of 2×HPK1 protein was added to each well of the plate containing the test compound, centrifuged at 1000 rpm for 30 seconds, and then incubated at 25° C. for 15 minutes. MBP protein was purchased from Millipore (Cat. No. 13-110) and ATP was purchased from Sigma (Cat. No. A7699-5G) and the two were formulated into 2× working solutions at concentrations of 4 uM and 80 uM. Added 2.5 μl mixture of 2×MBP and ATP, centrifuged at 1000 rpm for 30 seconds, then incubated at 25° C. for 90 minutes. Then added 5 ul of ADP-Glo (Promega, Cat. No. V9102) to the assay plate and incubated […] at 25° C. for 60 minutes. Finally, 10 ul of the kinase assay reagent (Promega, Cat. No. V9102) was added to the assay plate, centrifuged at 1000 rpm for 30 seconds at 25° C. for 60 minutes, and the […] was determined.

Chain of Mitogen-activated protein kinase kinase kinase kinase 1 (Q92918 whole entry): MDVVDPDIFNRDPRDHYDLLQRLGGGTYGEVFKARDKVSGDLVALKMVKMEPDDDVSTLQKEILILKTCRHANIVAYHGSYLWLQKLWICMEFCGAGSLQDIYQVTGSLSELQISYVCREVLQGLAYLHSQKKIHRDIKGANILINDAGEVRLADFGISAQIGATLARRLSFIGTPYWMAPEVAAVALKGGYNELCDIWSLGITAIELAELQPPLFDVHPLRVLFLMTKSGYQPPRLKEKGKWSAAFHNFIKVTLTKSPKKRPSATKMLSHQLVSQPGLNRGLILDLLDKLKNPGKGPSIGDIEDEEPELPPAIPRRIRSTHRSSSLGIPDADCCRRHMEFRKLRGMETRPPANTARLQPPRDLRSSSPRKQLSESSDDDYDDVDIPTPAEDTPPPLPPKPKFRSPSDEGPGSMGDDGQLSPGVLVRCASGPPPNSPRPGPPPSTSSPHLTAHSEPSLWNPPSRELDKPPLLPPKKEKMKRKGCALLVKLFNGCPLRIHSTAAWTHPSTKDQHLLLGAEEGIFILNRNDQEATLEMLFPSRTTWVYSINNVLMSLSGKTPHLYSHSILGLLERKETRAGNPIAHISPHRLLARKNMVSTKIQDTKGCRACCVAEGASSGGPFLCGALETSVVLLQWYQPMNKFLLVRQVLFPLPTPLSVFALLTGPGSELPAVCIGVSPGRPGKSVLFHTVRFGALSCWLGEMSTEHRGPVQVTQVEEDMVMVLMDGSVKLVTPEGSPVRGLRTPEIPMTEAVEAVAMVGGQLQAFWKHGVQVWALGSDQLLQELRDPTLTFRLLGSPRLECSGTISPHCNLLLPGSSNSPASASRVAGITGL

| Structure (SMILES) | IC50 |
| --- | --- |
| CN1CCC(c2ncc(-c3cnc(N)c(OCc4ccnc(C#CC(C)(C)O)c4)c3)s2)CC1 [US20240300941, Compound A10] | < 100 nM |
| CN1CCC(c2ncc(-c3cnc(N)c(OCc4cccc(C#CC5(O)CCCC5)c4)c3)s2)CC1 [US20240300941, Compound A34] | < 100 nM |
| CN1CCC(c2ncc(-c3cnc(N)c(OCc4cccc(C#CC(C)(C)O)c4)c3)s2)CC1 [US20240300941, Compound A3] | < 100 nM |
| CN1CCC(n2cc(-c3cnc(N)c(OCc4ccncc4)n3)c(N)n2)CC1 [US20240300941, Compound A14] | 100 to 1000 nM |
| CN1CCC(c2ncc(-c3cnc(N)c(OCc4cccc(C#CC5(O)CCC5)c4)c3)s2)CC1 [US20240300941, Compound A40] | < 100 nM |
| CC(C)(O)C#Cc1cccc(COc2cc(-c3cnc(C4CCNCC4)s3)cnc2N)c1 [US20240300941, Compound A42] | < 100 nM |
| Cc1nc(C2CCN(C)CC2)sc1-c1cnc(N)c(OCc2cccc(C#CC(C)(C)O)c2)c1 [US20240300941, Compound A62] | 100 to 1000 nM |
| CN1CCC(c2ncc(-c3cnc(N)c(OCc4cccc(C#CC5(O)CCCCC5)c4)c3)s2)CC1 [US20240300941, Compound A38] | > 1000 nM |

Now from value to molecule:

| IC50 | Structure (SMILES) |
| --- | --- |
| > 1000 nM | CN1CCC(c2ncc(-c3cnc(N)c(OC(C)(C)c4ccncc4)c3)s2)CC1 [US20240300941, Compound A6] |
| < 100 nM | CC(C)c1ncc(-c2cnc(N)c(OCc3cccc(C#CC(C)(C)O)c3)c2)s1 [US20240300941, Compound A41] |
| < 100 nM | Nc1ncc(-c2cnc(C3CCCCC3)s2)cc1OCc1ccncc1 [US20240300941, Compound A37] |
| < 100 nM | CN1CCN(c2ncc(-c3cnc(N)c(OCc4ccncc4)c3)s2)CC1 [US20240300941, Compound A12] |
| < 100 nM | CN1CCC(c2ncc(-c3cnc(N)c(OCc4ccnc(Cl)c4)c3)s2)CC1 [US20240300941, Compound A8] |
| < 100 nM | Nc1ncc(-c2cnc(C3CCNCC3)s2)cc1OCc1ccncc1 [US20240300941, Compound A7] |
| < 100 nM | CC(C)c1ncc(-c2cnc(N)c(OCc3ccncc3)c2)s1 [US20240300941, Compound A36] |
| > 1000 nM | COc1ccc(COc2cc(-c3cnc(C4CCN(C)CC4)s3)cnc2N)cc1 [US20240300941, Compound A9] |
| < 100 nM | Nc1ncc(-c2cnc(C3CCOCC3)s2)cc1OCc1ccncc1 [US20240300941, Compound A13] |
